From patent US7456133B2, “Substituted arylketones” (Bayer CropScience AG, priority 2001, dated 2008)

Legend:
weeds [1] = test: Pre-emergence test, damage to weeds; type: in vivo; conditions: soil sprayed 24 hours after sowing, rated after three weeks
Method: Solvent: 5 parts by weight of acetone
(§1) Emulsifier: 1 part by weight of alkylaryl polyglycol ether
(§2) To produce a suitable preparation of active compound, 1 part by weight of active compound is mixed with the stated amount of solvent, the stated amount of emulsifier is added and the concentrate is diluted with water to the desired concentration.
Seeds of the test plants are sown in normal soil. After 24 hours, the soil is sprayed with the preparation of active compound such that the particular amount of active compound desired is applied per unit area. The concentration of active compound in the spray liquor is chosen such that the particular amount of active compound desired is applied in 1000 litres of water per hectare.
(§3) After three weeks, the degree of damage to the plants is rated in % damage in comparison to the development of the untreated control. The figures denote: • 0%=no effect (like untreated control) • 100%=total destruction

weeds [2] = test: Post-emergence test, damage to weeds; type: in vivo; conditions: test plants of 5-15 cm sprayed, rated after three weeks
Method: Solvent: 5 part by weight of acetone
as §1, §2
Test plants of a height of 5-15 cm are sprayed with the preparation of active compound such that the particular amounts of active compound desired are applied per unit area. The concentration of the spray liquor is chosen such that the particular amounts of active compound desired are applied in 1000 l of water/ha.
as §3

[3] = Log P by reversed-phase HPLC (C 18), acidic range; type: physicochemical; conditions: reversed-phase HPLC column (C 18); given in the preparation examples, acidic or neutral range not given
Method: Log P values given in the tables were determined in accordance with EEC Directive 79/831 Annex V.A8 by HPLC (High Performance Liquid Chromatography) using a reversed-phase column (C 18). Temperature: 43° C. (a) Mobile phases for the determination in the acidic range: 0.1% aqueous phosphoric acid, acetonitrile; linear gradient from 10% acetonitrile to 90% acetonitrile—the corresponding measurement results in Tables 1 and 2 are labelled^a).

Structure (SMILES)	activity against weeds (weeds [1])	activity against weeds (weeds [2])	chromatographic logP [3]
CCn1ncc(C(=O)c2ccc(Cl)c(OCCNC(C)=O)c2Cl)c1O [Example I-2-1, N-(2-{2,6-dichloro-3-[(1-ethyl-5-hydroxy-1H-pyrazol-4-yl)-carbonyl]-phenoxy}-ethyl)-acetamide]	strong activity	strong activity	1.41
CC(C)NC(=S)NCc1c(Cl)ccc(C(=O)C2=C(O)CCCC2=O)c1Cl [Example I-2-3]	strong activity	strong activity	2.74
